Laboratory results published in PubChem BioAssay AID1259407 (Chemical Carcinogenesis Research Information System (CCRIS), 2018).
Calls of active or inactive are those of the source. No rule for the calls is given here.

Test system: CCRIS mutagenicity, Ames/micronucleus/aberration tests
Test: CCRIS mutagenicity studies
[1] = Test System: AMES SALMONELLA TYPHIMURIUM, Strain/Indicator: TA98, Metabolic Activation: NONE, Method: STANDARD PLATE
[2] = Test System: AMES SALMONELLA TYPHIMURIUM, Strain/Indicator: TA100, Metabolic Activation: NONE, Method: PREINCUBATION
[3] = Test System: AMES SALMONELLA TYPHIMURIUM, Strain/Indicator: TA100, Metabolic Activation: NONE, Method: STANDARD PLATE
[4] = Test System: AMES SALMONELLA TYPHIMURIUM, Strain/Indicator: TA98, Metabolic Activation: RAT, LIVER, S-9, AROCLOR 1254, Method: STANDARD PLATE
[5] = Test System: AMES SALMONELLA TYPHIMURIUM, Strain/Indicator: TA100, Metabolic Activation: RAT, LIVER, S-9, AROCLOR 1254, Method: STANDARD PLATE
[6] = Test System: MOUSE LYMPHOMA, Strain/Indicator: L5178Y (TK+/TK-), Metabolic Activation: NONE, Method: SUSPENSION/PLATE
[7] = Test System: MOUSE LYMPHOMA, Strain/Indicator: L5178Y (TK+/TK-), Metabolic Activation: RAT, LIVER, S-9, AROCLOR 1254, Method: SUSPENSION/PLATE
[8] = Test System: AMES SALMONELLA TYPHIMURIUM, Strain/Indicator: TA102, Metabolic Activation: NONE, Method: STANDARD PLATE

SMILES: [NH-]CCC(=O)[N-][C@@H](Cc1cnc[nH]1)C(=O)[O-].[Zn+2]
- mutagenic call (Test System: AMES SALMONELLA TYPHIMURIUM, Strain/Indicator: SD100, Metabolic Activation: NONE, Method: PREINCUBATION): inactive; negative
- mutagenic call (Test System: AMES SALMONELLA TYPHIMURIUM, Strain/Indicator: SD100, Metabolic Activation: RAT, LIVER, S-9, AROCLOR 1254, Method: PREINCUBATION): inactive; negative
- mutagenic call (Test System: AMES SALMONELLA TYPHIMURIUM, Strain/Indicator: TM677, Metabolic Activation: NONE, Method: PREINCUBATION): inactive; negative
- mutagenic call (Test System: AMES SALMONELLA TYPHIMURIUM, Strain/Indicator: TM677, Metabolic Activation: RAT, LIVER, S-9, AROCLOR 1254, Method: PREINCUBATION): inactive; negative
- mutagenic call (Test System: E. COLI, Strain/Indicator: WP2 UVRA, Metabolic Activation: NONE, Method: PREINCUBATION): inactive; negative
- mutagenic call (Test System: E. COLI, Strain/Indicator: WP2 UVRA, Metabolic Activation: RAT, LIVER, S-9, AROCLOR 1254, Method: PREINCUBATION): inactive; negative

SMILES: c1ccc2c(c1)cc1c3c2ccc2cccc(c23)C2NC12 (stereo unspecified)
- mutagenic call [1]: active; positive
- mutagenic call (Test System: AMES SALMONELLA TYPHIMURIUM, Strain/Indicator: TA100, Metabolic Activation: MICROSOMAL EPOXIDE HYDROLASE, Method: PREINCUBATION): active; positive
- mutagenic call [2]: active; positive
- mutagenic call [3]: active; positive
- mutagenic call (Test System: CHINESE HAMSTER V-79, Strain/Indicator: V-79/6-THIOGUANINE, Metabolic Activation: NONE, Method: REPLATING): active; positive
- mutagenic call (Test System: CHINESE HAMSTER V-79, Strain/Indicator: V-79/6-THIOGUANINE, Metabolic Activation: NONE, Method: STANDARD PLATE): active; positive
- mutagenic call (Test System: E. COLI, Strain/Indicator: WP2UVRA, Metabolic Activation: NONE, Method: STANDARD PLATE): active; positive

SMILES: O=C(O)c1oc([N+](=O)[O-])c(-c2ccccc2)c1-c1ccccc1
- mutagenic call [1]: inactive; negative
- mutagenic call [3]: active; positive

SMILES: N#Cc1ccc(/C=C\c2ccc([N+](=O)[O-])cc2)cc1
- mutagenic call (Test System: AMES SALMONELLA TYPHIMURIUM, Strain/Indicator: TA98 (NR), Metabolic Activation: NONE, Method: STANDARD PLATE): active; positive
- mutagenic call (Test System: AMES SALMONELLA TYPHIMURIUM, Strain/Indicator: TA98 (NR), Metabolic Activation: S-9, Method: STANDARD PLATE): active; positive
- mutagenic call [1]: active; positive
- mutagenic call (Test System: AMES SALMONELLA TYPHIMURIUM, Strain/Indicator: TA98, Metabolic Activation: S-9, Method: STANDARD PLATE): active; positive
- mutagenic call (Test System: AMES SALMONELLA TYPHIMURIUM, Strain/Indicator: TA100 (NR), Metabolic Activation: NONE, Method: STANDARD PLATE): inactive; negative
- mutagenic call (Test System: AMES SALMONELLA TYPHIMURIUM, Strain/Indicator: TA100 (NR), Metabolic Activation: S-9, Method: STANDARD PLATE): inactive; negative
- mutagenic call [3]: active; positive
- mutagenic call (Test System: AMES SALMONELLA TYPHIMURIUM, Strain/Indicator: TA100, Metabolic Activation: S-9, Method: STANDARD PLATE): active; positive

SMILES: COC1C2C(=O)C34C(=O)c5c(O)cc(C)cc5C(=O)C35C3C(=O)C46C(=O)c4c(O)cc(C)cc4C(=O)C26C(C3OC)C15 (stereo unspecified)
- mutagenic call [4]: inactive; negative
- mutagenic call [5]: inactive; negative
- mutagenic call (Test System: AMES SALMONELLA TYPHIMURIUM, Strain/Indicator: TA1537, Metabolic Activation: RAT, LIVER, S-9, AROCLOR 1254, Method: STANDARD PLATE): inactive; negative

SMILES: CC\C=C/C=C\C=C/C=C\C=C/C=C\OCC(O)CO (stereo unspecified)
- mutagenic call [2]: active; positive

SMILES: COc1c(Cl)ccc2oc3cc4c(c(OC)c3c(=O)c12)[C@@H]1C=CO[C@@H]1O4
- mutagenic call [1]: inactive; negative
- mutagenic call [4]: active; positive
- mutagenic call [3]: active; positive
- mutagenic call [5]: active; positive

SMILES: NC(CO)Cc1cnc[nH]1 (stereo unspecified)
- mutagenic call [6]: inactive; negative. reevaluation of results: negative
- mutagenic call [7]: inactive; negative. reevaluation of results: negative

SMILES: Cc1cc2c(cc1C)C(C)c1ccccc1-2 (stereo unspecified)
- mutagenic call [4]: active; positive
- mutagenic call [5]: active; positive

SMILES: CN(C)CCCNc1c2ccccc2nc2c(N(C)C)ccc([N+](=O)[O-])c12
- mutagenic call [1]: active; positive
- mutagenic call [3]: active; positive

SMILES: CCCCC1C(=O)N(c2ccccc2)N(c2ccccc2)C1=O
- mutagenic call (End Point: IN VITRO CHROMOSOMAL ABERRATIONS, Test System: CHINESE HAMSTER OVARY CELLS, Metabolic Activation: NONE): inactive; negative
- mutagenic call (End Point: IN VITRO CHROMOSOMAL ABERRATIONS, Test System: CHINESE HAMSTER OVARY CELLS, Metabolic Activation: RAT, LIVER, S-9, AROCLOR 1254): active; positive
- mutagenic call (Test System: AMES SALMONELLA TYPHIMURIUM, Strain/Indicator: TA97A, Metabolic Activation: NONE, Method: STANDARD PLATE): inactive; negative
- mutagenic call (Test System: AMES SALMONELLA TYPHIMURIUM, Strain/Indicator: TA97A, Metabolic Activation: RAT LIVER S-9, PHENOBARBITAL, Method: STANDARD PLATE): inactive; negative
- mutagenic call (Test System: AMES SALMONELLA TYPHIMURIUM, Strain/Indicator: TA98, Metabolic Activation: HAMSTER, LIVER, S-9, AROCLOR 1254, Method: PREINCUBATION): inactive; negative
- mutagenic call (Test System: AMES SALMONELLA TYPHIMURIUM, Strain/Indicator: TA98, Metabolic Activation: NONE, Method: PREINCUBATION): inactive; negative
- mutagenic call [1]: inactive; negative
- mutagenic call (Test System: AMES SALMONELLA TYPHIMURIUM, Strain/Indicator: TA98, Metabolic Activation: RAT LIVER S-9, PHENOBARBITAL, Method: STANDARD PLATE): inactive; negative
- mutagenic call (Test System: AMES SALMONELLA TYPHIMURIUM, Strain/Indicator: TA98, Metabolic Activation: RAT, LIVER, S-9, AROCLOR 1254, Method: PREINCUBATION): inactive; negative
- mutagenic call (Test System: AMES SALMONELLA TYPHIMURIUM, Strain/Indicator: TA100, Metabolic Activation: HAMSTER, LIVER, S-9, AROCLOR 1254, Method: PREINCUBATION): inactive; negative
- mutagenic call [2]: inactive; negative
- mutagenic call [3]: inactive; negative
- mutagenic call (Test System: AMES SALMONELLA TYPHIMURIUM, Strain/Indicator: TA100, Metabolic Activation: RAT LIVER S-9 PHENOBARBITAL, Method: STANDARD PLATE): inactive; negative
- mutagenic call (Test System: AMES SALMONELLA TYPHIMURIUM, Strain/Indicator: TA100, Metabolic Activation: RAT, LIVER, S-9, AROCLOR 1254, Method: PREINCUBATION): inactive; negative
- mutagenic call [8]: inactive; negative
- mutagenic call (Test System: AMES SALMONELLA TYPHIMURIUM, Strain/Indicator: TA102, Metabolic Activation: RAT LIVER S-9, PHENOBARBITAL, Method: STANDARD PLATE): inactive; negative
- mutagenic call (Test System: AMES SALMONELLA TYPHIMURIUM, Strain/Indicator: TA1535, Metabolic Activation: HAMSTER, LIVER, S-9, AROCLOR 1254, Method: PREINCUBATION): inactive; negative
- mutagenic call (Test System: AMES SALMONELLA TYPHIMURIUM, Strain/Indicator: TA1535, Metabolic Activation: NONE, Method: PREINCUBATION): inactive; negative
- mutagenic call (Test System: AMES SALMONELLA TYPHIMURIUM, Strain/Indicator: TA1535, Metabolic Activation: RAT, LIVER, S-9, AROCLOR 1254, Method: PREINCUBATION): inactive; negative
- mutagenic call (Test System: AMES SALMONELLA TYPHIMURIUM, Strain/Indicator: TA1537, Metabolic Activation: HAMSTER, LIVER, S-9, AROCLOR 1254, Method: PREINCUBATION): inactive; negative
- mutagenic call (Test System: AMES SALMONELLA TYPHIMURIUM, Strain/Indicator: TA1537, Metabolic Activation: NONE, Method: PREINCUBATION): inactive; negative
- mutagenic call (Test System: AMES SALMONELLA TYPHIMURIUM, Strain/Indicator: TA1537, Metabolic Activation: RAT, LIVER, S-9, AROCLOR 1254, Method: PREINCUBATION): inactive; negative
- mutagenic call [6]: active; positive
- mutagenic call [7]: active; positive

SMILES: O=C(CCBr)N1CCN(C(=O)CCBr)CC1
- mutagenic call [1]: inactive; negative
- mutagenic call [3]: active; positive
- mutagenic call [8]: inactive; negative
- mutagenic call (Test System: AMES SALMONELLA TYPHIMURIUM, Strain/Indicator: TA1537, Metabolic Activation: NONE, Method: STANDARD PLATE): inactive; negative
- mutagenic call (Test System: E. COLI, Strain/Indicator: WP2 (HCR), Metabolic Activation: NONE, Method: STANDARD PLATE): active; positive
